Data: PubChem BioAssay (NCI)
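Method: 48-hour compound exposure of cells in 96-well plates, five concentrations, linear interpolation of endpoints. Definition used: TGI = concentration required for complete inhibition of growth.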

Assays:
Experiment in all cases: growth of human tumour cells (NCI), 48 h
SN12C renal = test system: SN12C renal
TK-10 renal = test system: TK-10 renal
HS 578T breast = test system: HS 578T breast
UACC-62 melanoma = test system: UACC-62 melanoma
M14 melanoma = test system: M14 melanoma
A498 renal = test system: A498 renal
LOX IMVI melanoma = test system: LOX IMVI melanoma
EKVX NSCLC = test system: EKVX NSCLC
RXF 393 renal = test system: RXF 393 renal
MALME-3M melanoma = test system: MALME-3M melanoma
A549 NSCLC = test system: A549 NSCLC
NCI-H522 lung = test system: NCI-H522 lung
SK-OV-3 ovarian = test system: SK-OV-3 ovarian
HOP-92 NSCLC = test system: HOP-92 NSCLC
HCT-116 colon = test system: HCT-116 colon
SF-295 CNS = test system: SF-295 CNS
SR leukemia = test system: SR leukemia
SF-268 CNS = test system: SF-268 CNS
OVCAR-8 ovarian = test system: OVCAR-8 ovarian
NCI-H460 lung = test system: NCI-H460 lung
U251 CNS = test system: U251 CNS
HOP-62 NSCLC = test system: HOP-62 NSCLC
NCI-H226 lung = test system: NCI-H226 lung
SK-MEL-2 melanoma = test system: SK-MEL-2 melanoma
HCT-15 colon = test system: HCT-15 colon
MCF7 breast = test system: MCF7 breast
BT-549 breast = test system: BT-549 breast
SK-MEL-28 melanoma = test system: SK-MEL-28 melanoma
COLO 205 colon = test system: COLO 205 colon
SNB-19 CNS = test system: SNB-19 CNS
SK-MEL-5 melanoma = test system: SK-MEL-5 melanoma
MDA-N = test system: MDA-N
K-562 leukemia = test system: K-562 leukemia
HT29 colon = test system: HT29 colon
SW-620 colon = test system: SW-620 colon
MDA-MB-231 breast = test system: MDA-MB-231 breast
DU-145 prostate = test system: DU-145 prostate
HCC-2998 colon = test system: HCC-2998 colon
T-47D breast = test system: T-47D breast
NCI-H23 lung = test system: NCI-H23 lung
NCI/ADR-RES ovarian = test system: NCI/ADR-RES ovarian
RPMI-8226 leukemia = test system: RPMI-8226 leukemia
PC-3 prostate = test system: PC-3 prostate
UACC-257 melanoma = test system: UACC-257 melanoma
MOLT-4 leukemia = test system: MOLT-4 leukemia
OVCAR-5 ovarian = test system: OVCAR-5 ovarian
CCRF-CEM leukemia = test system: CCRF-CEM leukemia
786-0 renal = test system: 786-0 renal
UO-31 renal = test system: UO-31 renal
ACHN renal = test system: ACHN renal
IGROV1 ovarian = test system: IGROV1 ovarian
SNB-75 CNS = test system: SNB-75 CNS
OVCAR-4 ovarian = test system: OVCAR-4 ovarian
OVCAR-3 ovarian = test system: OVCAR-3 ovarian
KM12 colon = test system: KM12 colon
SF-539 CNS = test system: SF-539 CNS
MDA-MB-435 = test system: MDA-MB-435
HL-60(TB) leukemia = test system: HL-60(TB) leukemia
CAKI-1 renal = test system: CAKI-1 renal

Structure (SMILES): Cc1cn(CC2=NCCCN2)c(=O)[nH]c1=O
- TGI (SN12C renal): > 100 µM
- TGI (TK-10 renal): > 100 µM
- TGI (HS 578T breast): > 100 µM
- TGI (UACC-62 melanoma): > 100 µM
- TGI (M14 melanoma): > 100 µM
- TGI (A498 renal): > 100 µM
- TGI (LOX IMVI melanoma): > 100 µM
- TGI (EKVX NSCLC): > 100 µM
- TGI (RXF 393 renal): > 100 µM
- TGI (MALME-3M melanoma): > 100 µM
- TGI (A549 NSCLC): > 100 µM
- TGI (NCI-H522 lung): > 100 µM
- TGI (SK-OV-3 ovarian): > 100 µM
- TGI (HOP-92 NSCLC): > 100 µM
- TGI (HCT-116 colon): > 100 µM
- TGI (SF-295 CNS): > 100 µM
- TGI (SR leukemia): > 100 µM
- TGI (SF-268 CNS): > 100 µM
- TGI (OVCAR-8 ovarian): > 100 µM
- TGI (NCI-H460 lung): > 100 µM
- TGI (U251 CNS): > 100 µM
- TGI (HOP-62 NSCLC): > 100 µM
- TGI (NCI-H226 lung): > 100 µM
- TGI (SK-MEL-2 melanoma): > 100 µM
- TGI (HCT-15 colon): > 100 µM
- TGI (MCF7 breast): > 100 µM
- TGI (BT-549 breast): > 100 µM
- TGI (SK-MEL-28 melanoma): > 100 µM
- TGI (COLO 205 colon): > 100 µM
- TGI (SNB-19 CNS): > 100 µM
- TGI (SK-MEL-5 melanoma): > 100 µM
- TGI (MDA-N): > 100 µM
- TGI (K-562 leukemia): > 100 µM
- TGI (HT29 colon): > 100 µM
- TGI (SW-620 colon): > 100 µM
- TGI (MDA-MB-231 breast): > 100 µM
- TGI (DU-145 prostate): > 100 µM
- TGI (HCC-2998 colon): > 100 µM
- TGI (T-47D breast): > 100 µM
- TGI (NCI-H23 lung): > 100 µM
- TGI (NCI/ADR-RES ovarian): > 100 µM
- TGI (RPMI-8226 leukemia): > 100 µM
- TGI (PC-3 prostate): > 100 µM
- TGI (UACC-257 melanoma): > 100 µM
- TGI (MOLT-4 leukemia): > 100 µM
- TGI (OVCAR-5 ovarian): > 100 µM
- TGI (CCRF-CEM leukemia): > 100 µM
- TGI (786-0 renal): > 100 µM
- TGI (UO-31 renal): > 100 µM
- TGI (ACHN renal): > 100 µM
- TGI (IGROV1 ovarian): > 100 µM
- TGI (SNB-75 CNS): > 100 µM

Structure (SMILES): Cc1cc(NS(=O)(=O)c2ccc(NC(=O)c3cccc4c(NNc5ccc(S(=O)(=O)N=C(N)N)cc5)c5ccccc5nc34)cc2)no1
- TGI (SN12C renal): > 100 µM
- TGI (TK-10 renal): > 100 µM
- TGI (HS 578T breast): > 100 µM
- TGI (UACC-62 melanoma): > 100 µM
- TGI (M14 melanoma): > 100 µM
- TGI (OVCAR-4 ovarian): > 100 µM
- TGI (LOX IMVI melanoma): > 100 µM
- TGI (OVCAR-3 ovarian): > 100 µM
- TGI (EKVX NSCLC): 93.2 µM
- TGI (RXF 393 renal): > 100 µM
- TGI (MALME-3M melanoma): > 100 µM
- TGI (A549 NSCLC): > 100 µM
- TGI (NCI-H522 lung): 96.6 µM
- TGI (SK-OV-3 ovarian): > 100 µM
- TGI (HOP-92 NSCLC): 92.7 µM
- TGI (KM12 colon): > 100 µM
- TGI (HCT-116 colon): > 100 µM
- TGI (SF-539 CNS): > 100 µM
- TGI (SF-295 CNS): > 100 µM
- TGI (SR leukemia): > 100 µM
- TGI (SF-268 CNS): > 100 µM
- TGI (OVCAR-8 ovarian): > 100 µM
- TGI (NCI-H460 lung): > 100 µM
- TGI (U251 CNS): 64.7 µM
- TGI (MDA-MB-435): > 100 µM
- TGI (HOP-62 NSCLC): > 100 µM
- TGI (HL-60(TB) leukemia): 75.6 µM
- TGI (NCI-H226 lung): 98.5 µM
- TGI (SK-MEL-2 melanoma): 64.2 µM
- TGI (HCT-15 colon): > 100 µM
- TGI (MCF7 breast): > 100 µM
- TGI (BT-549 breast): > 100 µM
- TGI (SK-MEL-28 melanoma): > 100 µM
- TGI (COLO 205 colon): > 100 µM
- TGI (SNB-19 CNS): > 100 µM
- TGI (CAKI-1 renal): > 100 µM
- TGI (SK-MEL-5 melanoma): > 100 µM
- TGI (MDA-N): > 100 µM
- TGI (K-562 leukemia): > 100 µM
- TGI (HT29 colon): 92.6 µM
- TGI (SW-620 colon): > 100 µM
- TGI (MDA-MB-231 breast): > 100 µM
- TGI (DU-145 prostate): > 100 µM
- TGI (HCC-2998 colon): > 100 µM
- TGI (T-47D breast): > 100 µM
- TGI (NCI-H23 lung): > 100 µM
- TGI (NCI/ADR-RES ovarian): > 100 µM
- TGI (RPMI-8226 leukemia): > 100 µM
- TGI (PC-3 prostate): > 100 µM
- TGI (UACC-257 melanoma): > 100 µM
- TGI (MOLT-4 leukemia): 74.9 µM
- TGI (OVCAR-5 ovarian): > 100 µM
- TGI (CCRF-CEM leukemia): 82.3 µM
- TGI (786-0 renal): > 100 µM
- TGI (UO-31 renal): > 100 µM
- TGI (ACHN renal): > 100 µM
- TGI (IGROV1 ovarian): > 100 µM
- TGI (SNB-75 CNS): 88.3 µM
